Reference: ChEMBL document CHEMBL4742403, “Tricyclic protein kinase inhibitors for promoting liver regeneration or reducing or preventing hepatocyte death” (2019)

Tests used:
[1] = species: Homo sapiens; assay: Selectivity index, ratio of inhibition of full length human MKK7 (M1 to R419 residues) expressed in mammalian expression system assessed as residual percent of control binding at 100 nM relative to control to inhibition of partial length human MKK4 (S84 to D399 residues) expressed in mammalian expression system assessed as residual percent of control binding at 100 nM relative to control
[2] = species: Homo sapiens; assay: Selectivity index, ratio of inhibition of full length human JNK1 (M1 to Q384 residues) expressed in mammalian expression system assessed as residual percent of control binding at 100 nM relative to control to inhibition of partial length human MKK4 (S84 to D399 residues) expressed in mammalian expression system assessed as residual percent of control binding at 100 nM relative to control
[3] = species: Homo sapiens; assay: Selectivity index, ratio of inhibition of B-raf (unknown origin) to inhibition of partial length human MKK4 (S84 to D399 residues) expressed in mammalian expression system assessed as residual percent of control binding at 100 nM relative to control

Measured: Selectivity ratio

CCCS(=O)(=O)Nc1ccc(F)c(C(=O)c2ccc3[nH]c4ncc(-c5ccc(N)nc5)cc4c3c2)c1F
> 30: all assays above

CS(=O)(=O)Nc1c(F)ccc(C(=O)c2ccc3[nH]c4ncc(Cl)cc4c3c2)c1F
> 30: all assays above

CCCS(=O)(=O)Nc1ccc(F)c(C(=O)c2ccc3[nH]c4ncc(Cl)cc4c3c2)c1F
> 30: all assays above

CCCS(=O)(=O)Nc1ccc(F)c(C(=O)c2ccc3[nH]c4ncc(-c5ccc(S(N)(=O)=O)cc5)cc4c3c2)c1F
> 30: all assays above

CCCS(=O)(=O)Nc1ccc(F)c(C(=O)c2ccc3[nH]c4ncc(-c5ccc(C(=O)O)cc5)cc4c3c2)c1F
> 30: all assays above

CCCS(=O)(=O)Nc1ccc(F)c(C(=O)c2ccc3[nH]c4ncc(-c5ccc(S(=O)(=O)NCC(O)CO)nc5)cc4c3c2)c1F (configuration not stated)
> 30: all assays above

CCCS(=O)(=O)Nc1cccc(C(=O)c2ccc3[nH]c4ncc(Cl)cc4c3c2)c1F
> 30: all assays above

CCCS(=O)(=O)Nc1ccc(F)c(C(=O)c2ccc3[nH]c4ncc(-c5ccc(OCC(O)CO)cc5)cc4c3c2)c1F (configuration not stated)
> 30: all assays above

CCS(=O)(=O)Nc1ccc(F)c(C(=O)c2ccc3[nH]c4ncc(-c5ccc(S(N)(=O)=O)cc5)cc4c3c2)c1F
> 30: all assays above

CCCS(=O)(=O)Nc1ccc(F)c(C(=O)c2ccc3[nH]c4ncc(-c5ccc(C(N)=O)cc5)cc4c3c2)c1F
> 30: all assays above

CS(=O)(=O)Nc1ccc(F)c(C(=O)c2ccc3[nH]c4ncc(-c5ccc(S(N)(=O)=O)cc5)cc4c3c2)c1F
> 30: all assays above

CCCS(=O)(=O)Nc1ccc(F)c(C(=O)c2ccc3[nH]c4ncc(-c5ccc(-c6nnn[nH]6)cc5)cc4c3c2)c1F
> 30: all assays above

CCCS(=O)(=O)Nc1ccc(F)c(C(=O)c2ccc3[nH]c4ncc(-c5ccc(C(=O)NCC(O)CO)nc5)cc4c3c2)c1F (configuration not stated)
> 30: all assays above

CCCS(=O)(=O)Nc1ccc(F)c(C(=O)c2ccc3[nH]c4ncc(-c5ccncc5)cc4c3c2)c1F
> 30: all assays above
